This passage reports IC50 results from ChEMBL document CHEMBL5143711, “Glenthmycins A-M: Macrocyclic Spirotetronate Polyketide Antibacterials from the Australian Pasture Plant-Derived Streptomyces sp. CMB-PB041” (J Nat Prod, 2022).

For data set [1], the system named is Staphylococcus aureus. Description: Antibacterial activity against Staphylococcus aureus ATCC 25923 incubated for 16 to 24 hrs in presence of ampicillin by broth microdilution based spectrophotometric analysis. It is filed as functional, organism-based. A general note: Broth dilution looks for growth in wells or tubes with falling amounts of substance.
Data set [2] has as its system Enterococcus faecalis. Description: Antibacterial activity against Enterococcus faecalis incubated for 16 to 24 hrs in presence of ampicillin by broth microdilution based spectrophotometric analysis. It is filed as functional, organism-based.
Data set [3] deals with Staphylococcus aureus. Description: Antibacterial activity against Staphylococcus aureus ATCC 25923 incubated for 16 to 24 hrs in presence of rifampin by broth microdilution based spectrophotometric analysis. The format is functional, organism-based.
In data set [4] the test system is Enterococcus faecalis. Description: Antibacterial activity against Enterococcus faecalis incubated for 16 to 24 hrs in presence of rifampicin by broth microdilution based spectrophotometric analysis. It is filed as functional, organism-based.
For data set [5], the system named is Staphylococcus aureus. Description: Antibacterial activity against methicillin-resistant Staphylococcus aureus ATCC 43300 incubated for 16 to 24 hrs by broth microdilution based spectrophotometric analysis. It is filed as functional, organism-based.
The subject of data set [6] is Staphylococcus aureus. Description: Antibacterial activity against Staphylococcus aureus ATCC 25923 incubated for 16 to 24 hrs by broth microdilution based spectrophotometric analysis. The format is functional, organism-based.
A further data set concerns Escherichia coli. Description: Antibacterial activity against Escherichia coli ATCC 11775 incubated for 16 to 24 hrs by broth microdilution based spectrophotometric analysis. It is filed as functional, organism-based.
Data set [7] can be described thus: Cytotoxicity against human NCI-H460 cells and measured after 48 hrs by MTT assay. The format is toxicity, cell-based. (Tetrazolium assays rely on reduction of a dye to a coloured formazan, in cell work by metabolically active cells.)
A further data set deals with Enterococcus faecium. Description: Antibacterial activity against vancomycin-resistant Enterococcus faecium incubated for 16 to 24 hrs by broth microdilution based spectrophotometric analysis. It is filed as functional, organism-based.
Data set [8] concerns Mycobacterium tuberculosis. Description: Antibacterial activity against Mycobacterium tuberculosis H37Ra ATCC 25177 incubated for 16 to 24 hrs by broth microdilution based spectrophotometric analysis. The format is functional, organism-based.
The subject of data set [9] is Enterococcus faecalis. Description: Antibacterial activity against Enterococcus faecalis incubated for 16 to 24 hrs by broth microdilution based spectrophotometric analysis. The format is functional, organism-based.
The test system of data set [10] is Staphylococcus aureus. Description: Antibacterial activity against methicillin-resistant Staphylococcus aureus ATCC 33591 incubated for 16 to 24 hrs by broth microdilution based spectrophotometric analysis. It is filed as functional, organism-based.
Data set [11] can be described thus: Cytotoxicity against human SW-620 cells and measured after 48 hrs by MTT assay. The format is toxicity, cell-based.
A further data set has as its system Candida albicans. Description: Antifungal activity against Candida albicans ATCC 10231 incubated for 16 to 24 hrs by broth microdilution based spectrophotometric analysis. It is filed as functional, organism-based.

Regarding `CO[C@H]1/C=C/O[C@@]2(C)Oc3c(C)c(O)c4c(O)c(c(/C=N/N5CCN(C)CC5)c(O)c4c3C2=O)NC(=O)/C(C)=C\C=C\[C@H](C)[C@H](O)[C@@H](C)[C@@H](O)[C@@H](C)[C@H](OC(C)=O)[C@@H]1C` [RIFAMPIN], the IC50 in the data set on Staphylococcus aureus [1] and with Enterococcus faecalis [2] was less than 10 µM each time.
`CC1(C)S[C@@H]2[C@H](NC(=O)[C@H](N)c3ccccc3)C(=O)N2[C@H]1C(=O)O` [AMPICILLIN]: the IC50 in the data set with Staphylococcus aureus [3] and in the data set on Enterococcus faecalis [4] was less than 10 µM throughout.
On to `COc1cc(C)c(C(=O)O[C@H]2[C@@H](O)[C@H](O[C@H]3CC[C@H](C)[C@@H]4[C@@H]3C=C(C)[C@H]3/C(C)=C/CC/C(C)=C/[C@]5(C)C=C(C(=O)O)[C@H](C)C[C@]56OC(=O)C(=C6O)C(=O)[C@@]43C)O[C@H](C)[C@H]2O)c(O)c1`, for which the IC50 with Staphylococcus aureus [5] is 7.3 µM; with Staphylococcus aureus [6], 23.2 µM; in the data set on Escherichia coli, more than 30 µM; with Enterococcus faecium, 13.1 µM; in data set [8] it was more than 30 µM; in the data set on Enterococcus faecalis [9], 4 µM. Also, the IC50 with Staphylococcus aureus [10] was 12.2 µM; in the data set with Candida albicans, more than 30 µM. Further, the IC50 at 48 h in data set [7] and in data set [11] was more than 30 µM each time.
In the case of `CC1=C[C@@]2(C)/C=C(\C)CC/C=C(\C)[C@@H]3C(C)=C[C@H]4[C@@H]([C@@H](C)CC[C@@H]4O)[C@]3(C)C(=O)C3=C(O)[C@@]2(C[C@H]1C)OC3=O`, the IC50 with Staphylococcus aureus [5] was 3.8 µM; in the data set on Staphylococcus aureus [6], 16.4 µM; in the data set on Escherichia coli, more than 30 µM; with Enterococcus faecium, more than 30 µM; in data set [8] it was more than 30 µM; with Enterococcus faecalis [9] it was more than 30 µM. The IC50 with Staphylococcus aureus [10] is 8.4 µM; in the data set with Candida albicans, more than 30 µM. In addition, the IC50 at 48 h in data set [7] and in data set [11] was more than 30 µM in each case.
Consider `COc1cc(C)c(C(=O)O[C@H]2[C@@H](O)[C@@H](O)[C@H](O[C@H]3CC[C@H](C)[C@@H]4[C@@H]3C=C(C)[C@H]3/C(C)=C/CC/C(C)=C/[C@]5(C)C=C(C(=O)O)[C@H](C)C[C@]56OC(=O)C(=C6O)C(=O)[C@@]43C)O[C@@H]2C)c(OC)c1`, for which the IC50 in the data set on Staphylococcus aureus [5] is 3.9 µM; in the data set with Staphylococcus aureus [6], 4.9 µM; with Escherichia coli, more than 30 µM; in the data set with Enterococcus faecium, 3.2 µM; in [8] it was more than 30 µM; with Enterococcus faecalis [9] it was 6.2 µM. For the same compound, the IC50 was 2.3 µM in the data set on Staphylococcus aureus [10] and more than 30 µM in the data set on Candida albicans. Further, the IC50 at 48 h in data set [7] and in [11] was more than 30 µM in each case.

The IC50 is the concentration needed to halve the response being measured.
